Patent US20230165853A1, “METHOD FOR TREATING CHRONIC KIDNEY DISEASES” (ENYO PHARMA, priority 2021, published 2023)
Several values for one entry are separate records, joined by “and”; a condition that tells them apart may be missing. Equal entries are not always repeated. Entries after “also recorded” stand apart in the source; their conditions may differ. Marks after values point to notes of the source that are not given here. Values belong to the compound of their own block, whether it stands above or below them.

How the values were obtained:
[1] = system: Nx mice; assay: Subtotal nephrectomy (Nx) mouse model of CKD, curative study, renal histopathology (Example 1); format: in vivo
Excerpt: (§1) Analysis has been focused on an experimental model of CKD, i.e. the subtotal nephrectomy (Nx). In this model, a “curative study” was investigated, i.e. treatments have been initiated 5 weeks after Nx, when lesions are already developed. 42 nine-week old FVB female mice have been investigated, of which 6 have been submitted to sham operation (controls) and 36 to subtotal nephrectomy (Nx), which consist in the excision of the right kidney and the two poles of the left kidney to reach 75% reduction of total renal mass. Surgery was performed under xylazine (Rompun 2%; Bayer, Leverkusen, France) (6 μg/g of body weight) and ketamine (Clorketam 1000; Vetoquinol SA, Lirre, France) (120 μg/g of body weight) anesthesia.
(§2) After 5 weeks, mice have been divided into 4 groups: • Sham mice treated with the vehicle (n=6) • Nx mice treated with the vehicle (n=10) • Nx mice treated with dEF2572 FXR agonist (4-bromo-5-[4-(2,6-dichloro-benzenesulfonyl)-piperazin-1-yl]-benzofuran-2-carboxylic acid) at 100 mg/Kg/day (n=11) • Nx mice treated with Nidufexor (LMB763) FXR agonist at 30 mg/Kg/day (n=10)
Compounds have been administered once a day (QD) per oral gavage.
Mice have been sacrificed 3 weeks later. Blood has been collected just before sacrifice. At sacrifice, kidneys have been harvested for morphological and mRNA analyses.
Kidneys were fixed in 4% paraformaldehyde, paraffin embedded, and 4-μm sections were stained with Periodic acid-Schiff (PAS), Masson's trichrome, Hematoxylin and eosin, and picrosirius red (PSR). Images were acquired using a Nikon Digital Camera Dx/m/1200. All sections were evaluated by a pathologist who was blinded to the treatment groups.
The degree of glomerular lesions was evaluated on Periodic acid-Schiff (PAS) staining using a semi-quantitative score methodology. Briefly, 40-60 glomeruli per mouse were scored at a magnification of ×400, using the following scoring system: 0=no lesion, 1=mild sclerosis, interesting 10-25% of the glomerulus, 2=moderate sclerosis, interesting 25%-50% of the glomerulus, 3=severe sclerosis interesting 50%-75% of the glomerulus, and 4=global sclerosis interesting >75% of the glomerulus. The results were expressed as the mean of the scores of 40-60 glomeruli per mouse.
The degree of tubular dilations was automatically quantified on PAS staining using Image J/Fiji software, version 2.1.0. The extent of interstitial fibrosis was also quantified using Image J/Fiji software. Staining of all kidney samples with picrosirius red (PSR) was performed simultaneously, and red intensity above a defined threshold was defined as fibrosis. For tubular dilations and interstitial fibrosis, at least 10 to 15 random selected fields (magnification ×200) across the corticomedullary junction were analyzed per each kidney section, and the results were expressed as percentages of the total area of the selected fields.

[2] = system: FXR target genes (OSTA and OSTB); assay: Renal OSTA and OSTB mRNA levels by quantitative RT-PCR in Nx mice (Example 1); format: in vivo, mouse; conditions: Nx mice kidneys
Procedure: Mice were subjected to a subtotal nephrectomy (Nx). Treatments were initiated 5 weeks after Nx for a duration of 3 weeks. Kidneys were collected at sacrifice, and OSTA and OSTB mRNA levels were assessed by quantitative RT-PCR. p-values are indicated on the graphs.
as §1
as §2, with “mg/Kg/day (n=10) […]” for “mg/Kg/day (n=10)”

[3] = system: Nx mice; assay: Subtotal nephrectomy (Nx) mouse model of CKD, curative study, interstitial fibrosis by PSR (Example 2); format: in vivo; conditions: initiated 5 weeks after Nx
Excerpt: Analysis has been focused on an experimental model of CKD, i.e. the subtotal nephrectomy (Nx). In this model, a “curative study” was investigated, i.e. treatments have been initiated 5 weeks after Nx, when lesions are already developed.
54 nine-week old FVB female mice have been investigated, of which 6 have been submitted to sham operation (controls) and 48 to subtotal nephrectomy (Nx), which consist in the excision of the right kidney and the two poles of the left kidney to reach 75% reduction of total renal mass. Surgery was performed under xylazine (Rompun 2%; Bayer, Leverkusen, France) (6 μg/g of body weight) and ketamine (Clorketam 1000; Vetoquinol SA, Lirre, France) (120 μg/g of body weight) anesthesia. […]
Kidneys were fixed in 4% paraformaldehyde, paraffin embedded, and 4-μm sections were stained with picrosirius red (PSR). […] All sections were evaluated by a pathologist who was blinded to the treatment groups.
Staining of all kidney samples with picrosirius red (PSR) was performed, and red intensity above a defined threshold was defined as fibrosis. For interstitial fibrosis, at least 10 to 15 random selected fields (magnification ×200) across the corticomedullary junction were analyzed per each kidney section, and the results were expressed as percentages of the total area of the selected fields.

[4] = system: NASH patients; assay: Randomized, double-blind, placebo-controlled Livify NASH trial (Phase 2a); format: in vivo, human; conditions: for ALT, absolute change (IU/L) / Alpha-2-Macroglobulin, absolute change (mg/dL) / Body Weight, absolute change (kg) / Change Relative LFC, % / GGT, absolute change (IU/L) / Waist-to-Hip Ratio, absolute change / cT1, absolute change (msec) / eGFR, absolute change (mL/min/1.73 m^2) / Change Absolute LFC, %: change from baseline to W12, mean (SD); for Change Absolute LFC, %: MRI-PDFF
Procedure: Vonafexor has anti-fibrotic effects in NASH and Chronic Kidney Disease (CKD) models. Up to 64% of NASH patients have decreased estimated glomerular filtration rate (eGFR <90 mL/min/1.73 m^2) which can evolve into CKD. […] 96 patients were randomized 1:1:1 to daily oral Placebo (PBO, n=32) or VONA (Vonafexor) 100 mg (n=31) or 200 mg (n=33) for 12 weeks (W12). Inclusion criteria required phenotypic stage 2 or 3 fibrosis NASH with an absolute liver fat content (LFC by MRI-PDFF) ≥10% and liver stiffness by transient elastography [LSTE]≥8.5 kPa or previous biopsy-proven NASH. Randomization was stratified by diabetes and LFC.

[5] = 30 mg/Kg/day QD oral gavage for 3 weeks, 30 mg/kg/day
[6] = 100 mg/Kg/day QD oral gavage for 3 weeks, 100 mg/kg/day
[7] = 100 mg/Kg/day QD oral gavage for 3 weeks, initiated 5 weeks after Nx

SMILES: Cn1nc(C(=O)N(Cc2ccccc2)Cc2ccc(C(=O)O)cc2)c2c1-c1cc(Cl)ccc1OC2 [Nidufexor]
- interstitial fibrosis ([1]; 30 mg/Kg/day QD oral gavage for 3 weeks (FIG. 1)): no significant effect
- beneficial effects on the kidneys (interstitial fibrosis, tubular dilatation, glomerular lesions) ([1]; 30 mg/Kg/day QD oral gavage for 3 weeks, initiated 5 weeks after Nx): not observed
- renal expression of FXR target genes OSTA and OSTB (mRNA) [2, 5]: strong renal FXR target engagement; also recorded: more powerful FXR agonist than the identified compounds; also recorded: significantly increase

SMILES: CC[C@H]1[C@@H](O)[C@@H]2[C@H](CC[C@]3(C)[C@@H]([C@H](C)CCC(=O)O)CC[C@@H]23)[C@@]2(C)CC[C@@H](O)C[C@@H]12 [Obeticholic acid, reference compound]
- renal interstitial fibrosis (picrosirius red staining positive areas) [3, 5]: no significant effect

- patients discontinued participation due to pruritus ([4]; 100 mg): 9%
- increase in low density lipoprotein-cholesterol (LDL-C) ([4]; NASH patients, 12 weeks): 34%
SMILES: O=C(O)c1cc2c(Cl)c(N3CCN(S(=O)(=O)c4c(Cl)cccc4Cl)CC3)ccc2o1 [Vonafexor, 4-chloro-5-[4-(2,6-dichloro-benzenesulfonyl)-piperazin-1-yl]-benzofuran-2-carboxylic acid]
- renal interstitial fibrosis (picrosirius red staining positive areas) [3, 6]: significantly decreases; also recorded: significantly better than OCA; also recorded: higher beneficial effects than Losartan
- liver fibro-inflammation marker cT1 (Liver Multiscan) reduced by ([4]; 100 mg arm, p<0.001 vs PBO): 81 ms
- % Patients >88 msec absolute reduction (cT1) ([4]; 100 mg daily oral, W12): 36% *
- % Patients with >30% absolute reduction (LFC) ([4]; 100 mg daily oral, W12): 50% §
- % Patients with >−17 IU/L reduction (ALT) ([4]; 100 mg daily oral, W12): 52% §
- % Patients with any eGFR increase ([4]; 100 mg daily oral, W12): 76% §
- ALT, absolute change (IU/L) ([4]; 100 mg daily oral): −19.3 (3.2) § IU/L
- Alpha-2-Macroglobulin, absolute change (mg/dL) ([4]; 100 mg daily oral): −25.9 (4.3) #, § mg/dL
- Body Weight, absolute change (kg) ([4]; 100 mg daily oral): −1.7 (0.5) #,§ kg
- Change Relative LFC, % ([4]; 100 mg daily oral): −30.0 (4.7) #, § %
- GGT, absolute change (IU/L) ([4]; 100 mg daily oral): −40.6 (3.3) #, § IU/L
- Waist-to-Hip Ratio, absolute change ([4]; 100 mg daily oral): −0.02 (0.0) #, §
- cT1, absolute change (msec) ([4]; 100 mg daily oral): −80.6 (15.4) #, § msec
- eGFR, absolute change (mL/min/1.73 m^2) ([4]; 100 mg daily oral): +6.0 (9.5) #, § mL/min/1.73 m^2
- Change Absolute LFC, % ([4]; 100 mg daily oral): −6.3% and −6.3 (0.9) #, § %
- non-drug related severe adverse events (number) ([4]; 100 mg group): 2
- mean improvement in eGFR ([4]; 100 mg or 200 mg treated subjects, 12 weeks): +5.6 mL/min/1.73 m^2
- patients with an eGFR increase >0.1 mL/min/1.73 m ([4]; 100 mg treated subjects, 12-week treatment period): 76%
- % Patients >88 msec absolute reduction (cT1) ([4]; 200 mg daily oral, W12): 36% *
- % Patients with >5% absolute LFC reduction ([4]; 200 mg daily oral, W12): 43% §
- % Patients with >30% absolute reduction (LFC) ([4]; 200 mg daily oral, W12): 39% §
- % Patients with >−17 IU/L reduction (ALT) ([4]; 200 mg daily oral, W12): 36%
- % Patients with any eGFR increase ([4]; 200 mg daily oral, W12): 65% §
- ALT, absolute change (IU/L) ([4]; 200 mg daily oral): −10.8 (3.3) IU/L
- Alpha-2-Macroglobulin, absolute change (mg/dL) ([4]; 200 mg daily oral): −18.4 (4.5) #, § mg/dL
- Body Weight, absolute change (kg) ([4]; 200 mg daily oral): −2.5 (0.5) #, § kg
- Change Relative LFC, % ([4]; 200 mg daily oral): −25.5 (4.6) #, § %
- GGT, absolute change (IU/L) ([4]; 200 mg daily oral): −34.1 (3.3) #, § IU/L
- Waist-to-Hip Ratio, absolute change ([4]; 200 mg daily oral): −0.01 (0.0)
- cT1, absolute change (msec) ([4]; 200 mg daily oral): −71.9 (14.2) #, § msec
- eGFR, absolute change (mL/min/1.73 m^2) ([4]; 200 mg daily oral): +2.5 (14.5) #, § mL/min/1.73 m^2
- Change Absolute LFC, % ([4]; 200 mg daily oral): −5.5% and −5.5 (0.9) #, § %
- non-drug related severe adverse events (number) ([4]; 200 mg group): 2
- overall safety and tolerability ([4]; NASH patients, 100 mg or 200 mg daily for 12 weeks): safe and well tolerated
- ALT increases Grade 2 ([4]; NASH patients, 12 weeks): No ALT increases Grade 2
- alpha-2-Macroglobulin (A2M) plasma levels ([4]; NASH patients, reduction correlated with eGFR improvement (p<0.05)): reduced
- mean reduction in ALT ([4]; VONA treatment (dose not stated), 12 weeks): 26%
- patients achieving relative LFC reduction of >30% ([4]; VONA-treated (dose not stated), W12): 50%
- mean reduction in GGT ([4]; VONA-treated subjects (dose not stated), p<0.001): 42%

SMILES: O=C(O)c1cc2c(Br)c(N3CCN(S(=O)(=O)c4c(Cl)cccc4Cl)CC3)ccc2o1 [dEF2572, 4-bromo-5-[4-(2,6-dichloro-benzenesulfonyl)-piperazin-1-yl]-benzofuran-2-carboxylic acid]
- renal glomerular lesions (semi-quantitative score) [1, 7]: significantly decreases
- renal interstitial fibrosis (picrosirius red staining positive areas) [1, 7]: significantly decreases
- renal tubular dilatation (PAS staining) [1, 7]: significantly decreases
- renal expression of FXR target genes OSTA and OSTB (mRNA) [2, 6]: strong renal FXR target engagement; also recorded: significantly increase
